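Results reflect a 48-hour exposure of cells in 96-well plates to compound at five concentrations. TGI: concentration producing complete growth inhibition.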
Tests used:
Assay in all cases: DTP human tumour cell line panel, 48 h
786-0 renal = test system: 786-0 renal
A498 renal = test system: A498 renal
A549 NSCLC = test system: A549 NSCLC
ACHN renal = test system: ACHN renal
BT-549 breast = test system: BT-549 breast
CAKI-1 renal = test system: CAKI-1 renal
CCRF-CEM leukemia = test system: CCRF-CEM leukemia
COLO 205 colon = test system: COLO 205 colon
DU-145 prostate = test system: DU-145 prostate
EKVX NSCLC = test system: EKVX NSCLC
HCC-2998 colon = test system: HCC-2998 colon
HCT-116 colon = test system: HCT-116 colon
HCT-15 colon = test system: HCT-15 colon
HL-60(TB) leukemia = test system: HL-60(TB) leukemia
HOP-62 NSCLC = test system: HOP-62 NSCLC
HOP-92 NSCLC = test system: HOP-92 NSCLC
HS 578T breast = test system: HS 578T breast
HT29 colon = test system: HT29 colon
IGROV1 ovarian = test system: IGROV1 ovarian
K-562 leukemia = test system: K-562 leukemia
KM12 colon = test system: KM12 colon
LOX IMVI melanoma = test system: LOX IMVI melanoma
M14 melanoma = test system: M14 melanoma
MALME-3M melanoma = test system: MALME-3M melanoma
MCF7 breast = test system: MCF7 breast
MDA-MB-231 breast = test system: MDA-MB-231 breast
MDA-MB-435 = test system: MDA-MB-435
MDA-N = test system: MDA-N
MOLT-4 leukemia = test system: MOLT-4 leukemia
NCI-H226 lung = test system: NCI-H226 lung
NCI-H23 lung = test system: NCI-H23 lung
NCI-H460 lung = test system: NCI-H460 lung
NCI-H522 lung = test system: NCI-H522 lung
NCI/ADR-RES ovarian = test system: NCI/ADR-RES ovarian
OVCAR-3 ovarian = test system: OVCAR-3 ovarian
OVCAR-4 ovarian = test system: OVCAR-4 ovarian
OVCAR-5 ovarian = test system: OVCAR-5 ovarian
OVCAR-8 ovarian = test system: OVCAR-8 ovarian
PC-3 prostate = test system: PC-3 prostate
RPMI-8226 leukemia = test system: RPMI-8226 leukemia
RXF 393 renal = test system: RXF 393 renal
SF-268 CNS = test system: SF-268 CNS
SF-295 CNS = test system: SF-295 CNS
SF-539 CNS = test system: SF-539 CNS
SK-MEL-2 melanoma = test system: SK-MEL-2 melanoma
SK-MEL-28 melanoma = test system: SK-MEL-28 melanoma
SK-MEL-5 melanoma = test system: SK-MEL-5 melanoma
SK-OV-3 ovarian = test system: SK-OV-3 ovarian
SN12C renal = test system: SN12C renal
SNB-19 CNS = test system: SNB-19 CNS
SNB-75 CNS = test system: SNB-75 CNS
SR leukemia = test system: SR leukemia
SW-620 colon = test system: SW-620 colon
T-47D breast = test system: T-47D breast
TK-10 renal = test system: TK-10 renal
U251 CNS = test system: U251 CNS
UACC-257 melanoma = test system: UACC-257 melanoma
UACC-62 melanoma = test system: UACC-62 melanoma
UO-31 renal = test system: UO-31 renal
DMS 114 small cell lung = test system: DMS 114 small cell lung
KM20L2 colon = test system: KM20L2 colon
LXFL 529 NSCLC = test system: LXFL 529 NSCLC
M19-MEL melanoma = test system: M19-MEL melanoma
SNB-78 CNS = test system: SNB-78 CNS

CSc1nc(C)cc(Nc2ccc(O)c(CN3CCOCC3)c2)n1
TGI (786-0 renal): > 100 µM | TGI (A498 renal): > 100 µM | TGI (A549 NSCLC): > 100 µM | TGI (ACHN renal): > 100 µM | TGI (BT-549 breast): > 100 µM | TGI (CAKI-1 renal): > 100 µM | TGI (CCRF-CEM leukemia): > 100 µM | TGI (COLO 205 colon): > 100 µM | TGI (DU-145 prostate): > 100 µM | TGI (EKVX NSCLC): > 100 µM | TGI (HCC-2998 colon): > 100 µM | TGI (HCT-116 colon): > 100 µM | TGI (HCT-15 colon): > 100 µM | TGI (HL-60(TB) leukemia): > 100 µM | TGI (HOP-62 NSCLC): > 100 µM | TGI (HOP-92 NSCLC): > 100 µM | TGI (HS 578T breast): > 100 µM | TGI (HT29 colon): > 100 µM | TGI (IGROV1 ovarian): > 100 µM | TGI (K-562 leukemia): > 100 µM | TGI (KM12 colon): > 100 µM | TGI (LOX IMVI melanoma): > 100 µM | TGI (M14 melanoma): > 100 µM | TGI (MALME-3M melanoma): > 100 µM | TGI (MCF7 breast): > 100 µM | TGI (MDA-MB-231 breast): > 100 µM | TGI (MDA-MB-435): > 100 µM | TGI (MDA-N): > 100 µM | TGI (MOLT-4 leukemia): > 100 µM | TGI (NCI-H226 lung): > 100 µM | TGI (NCI-H23 lung): > 100 µM | TGI (NCI-H460 lung): > 100 µM | TGI (NCI-H522 lung): > 100 µM | TGI (NCI/ADR-RES ovarian): > 100 µM | TGI (OVCAR-3 ovarian): > 100 µM | TGI (OVCAR-4 ovarian): > 100 µM | TGI (OVCAR-5 ovarian): > 100 µM | TGI (OVCAR-8 ovarian): > 100 µM | TGI (PC-3 prostate): > 100 µM | TGI (RPMI-8226 leukemia): > 100 µM | TGI (RXF 393 renal): > 100 µM | TGI (SF-268 CNS): > 100 µM | TGI (SF-295 CNS): > 100 µM | TGI (SF-539 CNS): > 100 µM | TGI (SK-MEL-2 melanoma): > 100 µM | TGI (SK-MEL-28 melanoma): > 100 µM | TGI (SK-MEL-5 melanoma): > 100 µM | TGI (SK-OV-3 ovarian): > 100 µM | TGI (SN12C renal): > 100 µM | TGI (SNB-19 CNS): > 100 µM | TGI (SNB-75 CNS): > 100 µM | TGI (SR leukemia): > 100 µM | TGI (SW-620 colon): > 100 µM | TGI (T-47D breast): > 100 µM | TGI (TK-10 renal): > 100 µM | TGI (U251 CNS): > 100 µM | TGI (UACC-257 melanoma): > 100 µM | TGI (UACC-62 melanoma): > 100 µM | TGI (UO-31 renal): > 100 µM

COc1cc2c(cc1OC)C1C(=O)c3c(O)cc4c(c3OC1CO2)C=CC(C)(C)O4 (stereo unspecified)
TGI (A498 renal): > 100 µM | TGI (A549 NSCLC): > 100 µM | TGI (ACHN renal): > 100 µM | TGI (CAKI-1 renal): > 100 µM | TGI (DMS 114 small cell lung): 25.7 µM | TGI (HCT-116 colon): 70.6 µM | TGI (HCT-15 colon): > 100 µM | TGI (HOP-62 NSCLC): 55.6 µM | TGI (HOP-92 NSCLC): 74.5 µM | TGI (HT29 colon): > 100 µM | TGI (IGROV1 ovarian): > 100 µM | TGI (KM12 colon): 68.3 µM | TGI (KM20L2 colon): 89.5 µM | TGI (LOX IMVI melanoma): 38.8 µM | TGI (LXFL 529 NSCLC): 94 µM | TGI (M14 melanoma): 76.3 µM | TGI (M19-MEL melanoma): 61.4 µM | TGI (MALME-3M melanoma): 72.9 µM | TGI (NCI-H460 lung): 93.1 µM | TGI (NCI-H522 lung): 5.45 µM | TGI (OVCAR-3 ovarian): 65.5 µM | TGI (OVCAR-5 ovarian): > 100 µM | TGI (SF-268 CNS): > 100 µM | TGI (SF-539 CNS): > 100 µM | TGI (SK-MEL-2 melanoma): 50.7 µM | TGI (SK-MEL-28 melanoma): > 100 µM | TGI (SK-MEL-5 melanoma): 25.3 µM | TGI (SK-OV-3 ovarian): > 100 µM | TGI (SN12C renal): > 100 µM | TGI (SNB-75 CNS): 96.4 µM | TGI (SNB-78 CNS): > 100 µM | TGI (SR leukemia): > 100 µM | TGI (SW-620 colon): > 100 µM | TGI (TK-10 renal): > 100 µM | TGI (U251 CNS): 93.2 µM | TGI (UACC-62 melanoma): 52.3 µM | TGI (UO-31 renal): 59.2 µM

— PubChem BioAssay (NCI)
